In patent US20240398807A1, “COMPOSITIONS AND METHODS OF TREATING KIDNEY DISEASE AND FIBROSIS” (Mitokinin, Inc., priority 2020, published 2024):
“Also recorded” adds a separate entry of the source.

What was measured:
[1] = test system: PINK1; test: Western blot for PINK1 in kidney mitochondrial preparations; type: in vivo, mice (C57Bl/6); conditions: C57Bl/6; single i.p. 30 mg/kg cisplatin; FIG. 3B
Description: Kidneys were removed from -80° C. and minced on an ice block. Minced tissues were transferred to a dounce homogenizer and homogenized with 20× strokes of the 'loose' pestle and 20× strokes of the 'tight' pestle using 1 ml ul of cold mitochondrial isolation buffer (MIB, 50 mM Tris-HCl (pH 7.5), 70 mM sucrose, 210 mM sorbitol, 1 mM EDTA, 1 mM EGTA, 100 mM chloroacetamide, HaltTM Protease and Phosphatase Inhibitor Cocktail, EDTA-free (100×) (PI), 10 μM PR619). Kidney homogenate was transferred to a 1.5 ml Eppendorf tube and were centrifuged at 300×g for 5 min at 4° C. Approximately 800 ul of supernatant was transferred to a new 1.5 ml microcentrifuge tube. The supernatant (cytosol+mitochondria) was transferred to a new tube and centrifuged at 10,000 g for 20 min at 4° C. to pellet the mitochondrial fraction. […] The total protein concentration of kidney mitopreps was measured with the Thermo Scientific Pierce BCA Protein Assay Kit (Thermo Scientific), according to its product manual. […] For each lane of a 26 well gel (4-20% CriterionTM Tris-HCl Protein Gel, Bio-Rad Laboratories), 10 μg per sample was loaded and analyzed by Western Blotting. Indicated bands were quantified using ImageStudio Lite and normalized to beta actin band intensity. […]

[2] = test system: pS65-Ub; test: pS65-Ub ELISA of kidney mitochondrial preparations; type: in vivo, mice (C57Bl/6); conditions: single i.p. 30 mg/kg cisplatin
Description: Kidneys were removed from -80° C. and minced on an ice block. Minced tissues were transferred to a dounce homogenizer and homogenized with 20× strokes of the 'loose' pestle and 20× strokes of the 'tight' pestle using 1 ml ul of cold mitochondrial isolation buffer (MIB, 50 mM Tris-HCl (pH 7.5), 70 mM sucrose, 210 mM sorbitol, 1 mM EDTA, 1 mM EGTA, 100 mM chloroacetamide, HaltTM Protease and Phosphatase Inhibitor Cocktail, EDTA-free (100×) (PI), 10 μM PR619). Kidney homogenate was transferred to a 1.5 ml Eppendorf tube and were centrifuged at 300×g for 5 min at 4° C. Approximately 800 ul of supernatant was transferred to a new 1.5 ml microcentrifuge tube. The supernatant (cytosol+mitochondria) was transferred to a new tube and centrifuged at 10,000 g for 20 min at 4° C. to pellet the mitochondrial fraction. After removing residual supernatant, mitochondria were resuspended in lysis buffer (100 mM Bicine pH 8.0, 0.27M Sucrose, 1 mM EDTA, 1 mM EGTA, 5 mM Na4P2O7, 100 mM Tris pH 7.5, 1% Triton X-100), containing benzonase (1:1000), HALT protease/phosphatase inhibitors (1:100), and PR-619 de-ubiquitinase inhibitor (1:1000). […] For peroxidase reaction, 50 ul of TMB reagent (Pierce #34029) was added to the wells after washing and wells were monitored closely for reaction development. […] Absorbance was measured at 450 nm using […] SpectraMax). […]

[3] = test system: mitochondrial DNA; test: kidney mtDNA/nucDNA ratio by qPCR; type: in vivo
Description: A small piece of frozen kidney tissue (˜12 mg) was homogenized and DNA extracted using the Qiagen QIAamp DNA mini kit. mtDNA/nucDNA ratio was determined using a qPCR protocol from the Aurwex lab (Quiros et al, 2017), using the following primers: 16S rRNA 5′-[…]-3′(SEQ ID NO:11) and 5′-[…]-3′ (SEQ ID NO:12); ND1 5′-[…]-3′ (SEQ ID NO: 13) and: 5′-[…]-3 (SEQ ID NO:14); HK2 5′-[…]-3′ (SEQ ID NO:15) and 5′-[…]-3′ (SEQ ID NO:16).
Referring to FIG. 4, mice (C57Bl/6) were challenged with a single intraperitoneal dose of 10 mg/kg cisplatin. Tissue lysates were examined for mitochondrial gene ND1 and nuclear gene beta actin by quantitative PCR.
Referring to FIG. 12, mice (C57Bl/6) were challenged with a single intraperitoneal dose of 10 mg/kg cisplatin and dosed by oral gavage, once per day (QD) for seven days with 35985.

[4] = body weight loss in cisplatin-challenged mice; type: in vivo, mice (C57Bl/6)
Description: Referring to FIG. 9, mice (C57Bl/6) were challenged with a single intraperitoneal dose of 10 mg/kg cisplatin or saline (not shown) and dosed by oral gavage once per day (QD) with 35985.

[5] = test system: HeLa cells expressing a mitophagy indicator (mtKeima) protein; test: mitophagy in HeLa cells expressing mtKeima, FACS; type: cell-based; conditions: 1 mM of FCCP and Oligomycin then specified dose of compound, FIG. 1
Description: Briefly, HeLa cells expressing a mitophagy indicator (mtKeima) protein were treated with […] of FCCP and Oligomycin followed by the specified dose of compound, then analyzed by FACS to quantify the percentage of cells undergoing mitophagy.

[6] = test system: GDF15; test: serum GDF15 ELISA in cisplatin-challenged mice; type: in vivo, mice (C57Bl/6); conditions: single i.p. 10 mg/kg cisplatin; oral gavage QD 20 mg/kg or 50 mg/kg; after 7 days; FIG. 13
Description: For tissue harvest, mice were anesthetized using isofluorane. Cardiac puncture was performed to withdraw blood for serum collection. Blood was deposited into serum separator tubes and left undisturbed for 30 min to 1 hr at room temperature to allow clotting prior to serum separation by centrifugation for 2 min (10,000 g, room temperature). Collected serum was transferred to Eppendorf tubes and frozen on dry ice. After cervical dislocation, left and right kidneys were extracted and frozen until analysis.
Referring to FIG. 13, mice (C57Bl/6) were challenged with a single intraperitoneal dose of 10 mg/kg cisplatin or saline and dosed by oral gavage once per day (QD) with 20 mg/kg or 50 mg/kg 35985.

[7] = test system: HeLa cells expressing a YFP-tagged Parkin; test: Parkin recruitment to mitochondria, longitudinal imaging; type: cell-based; conditions: 1 mM of FCCP and Oligomycin then specified dose, percentage of cells with Parkin recruited at 60 minutes, FIG. 2
Description: HeLa cells expressing a YFP-tagged Parkin were treated with […] of FCCP and Oligomycin followed by the specified dose of compound, then analyzed by longitudinal imaging. Percentage of cells with Parkin recruited to mitochondria at 60 minutes is shown.

[8] = test system: KIM-1 (kidney-injury marker 1); test: urine KIM-1 ELISA in cisplatin-challenged mice; type: in vivo, mice (C57Bl/6); conditions: for KIM-1 (urine biomarker for kidney injury): single i.p. 10 mg/kg cisplatin, day 3 post-challenge
Description: Urine was collected from scruffed mice (serial collection) or directly from bladder using insulin syringe during harvest (terminal collection). KIM-1 was measured in mouse urine using R&D System's Mouse TIM-1/KIM-1/HAVCR DuoSet ELISA following manufacturer's published protocol.
Referring to FIG. 10, mice (C57Bl/6) were challenged with a single intraperitoneal dose of 10 mg/kg cisplatin or saline (not shown) and dosed by oral gavage once per day (QD) with 35985.

SMILES: N.N.[Cl][Pt][Cl] [cisplatin, reference compound]
- PINK1 protein in kidney mitochondria [1]: induction of PINK1
- pS65-Ub in kidney mitochondria ([2]; C57Bl/6, FIG. 3A): pS65-Ub increase
- kidney mitochondria pS65-Ub levels ([2]; PINK1 KO mice, different times, FIG. 6, 30 mg/kg): does not induce a change in pS65 Ubiquitin; also recorded: remains unchanged
- mitochondrial DNA (mtDNA/nucDNA ratio; ND1 vs beta actin) ([3]; C57Bl/6, single i.p. 10 mg/kg cisplatin, FIG. 4): induces reduction in mtDNA/nucDNA ratio; also recorded: significant reduction in mitochondrial DNA

SMILES: FC(F)(F)c1cc2c(N[C@@H]3CCCc4ccccc43)ncnc2[nH]1 [compound 35985]
- cisplatin-mediated weight-loss ([4]; single i.p. 10 mg/kg cisplatin, 35985 oral gavage QD, FIG. 9, 10 mg/kg): ameliorates cisplatin-induced body-weight loss; also recorded: dose-dependent rescue of cisplatin-mediated weight-loss
- percentage of cells undergoing mitophagy [5]: induce mitophagy in a dose dependent manner; also recorded: dose responsive increase in the percentage of cells undergoing mitophagy
- mitochondrial-stress serum biomarker GDF15 (ELISA) [6]: reduces serum GDF15 levels; also recorded: reduced mitochondrial-stress serum biomarker GDF15
- rate of Parkin recruitment to mitochondria [7]: accelerate recruitment of Parkin to mitochondria; also recorded: dose responsive increase in the rate of Parkin recruitment to mitochondria
- KIM-1 (urine biomarker for kidney injury) ([8]; 35985 oral gavage QD, FIG. 10): reduces kidney damage in cisplatin challenged mice; also recorded: dose-dependent rescue of KIM-1
- cisplatin-mediated mitochondrial DNA loss ([3]; single i.p. 10 mg/kg cisplatin, oral gavage QD seven days, at 10 mg/kg and above, FIG. 12): ameliorates mtDNA loss upon cisplatin challenge; also recorded: rescued cisplatin-mediated mitochondrial DNA loss

SMILES: c1ccc2c(c1)OC[C@@H](N1CCOCC1)[C@@H]2Nc1ncnc2[nH]c(C3CC3)cc12 [compound 40180]
- percentage of cells undergoing mitophagy [5]: induce mitophagy in a dose dependent manner; also recorded: dose responsive increase in the percentage of cells undergoing mitophagy
- rate of Parkin recruitment to mitochondria [7]: accelerate recruitment of Parkin to mitochondria; also recorded: dose responsive increase in the rate of Parkin recruitment to mitochondria
- KIM-1 (urine biomarker for kidney injury) ([8]; 40180 oral gavage QD, FIG. 14): reduces KIM-1; also recorded: dose-dependent rescue of KIM-1

SMILES: FC(F)(F)c1cc2c(N[C@H]3c4ccccc4CC[C@@H]3C3C[C@@H]4COC[C@H]4C3)ncnc2[nH]1 [compound 40270]
- kidney dysfunction, KIM-1 levels ([8]; single dose cisplatin 10 mg/kg i.p., 53 mg/kg p.o., b.i.d., FIG. 17): reduces KIM-1; also recorded: Dysfunction was ameliorated

SMILES: C[C@@H]1CN([C@@H]2COc3cc(F)ccc3[C@H]2Nc2ncnc3[nH]c(C(F)(F)F)cc23)CCO1 [compound 41088]
- cisplatin-induced weight loss ([4]; single dose cisplatin 10 mg/kg i.p., p.o., q.d. at 1.56, 3.13, 6.25 and 12.5 mg/kg, FIG. 18): reduces weight loss; also recorded: Weight loss was ameliorated
